# Values quoted from earlier work, collected in patent EP4789665A1, “TREATMENT OF HIS HYPORESPONDERS” (NewAmsterdam Pharma B.V., priority 2021, dated 2023).
# Key:
# CETP [1] = molecular target: T1, CETP (Homo sapiens, UniProt P11597); conditions: in vivo; cited from earlier work
# T1 construct: endogenous in cells; host or cells: trial patients (in vivo, circulating plasma CETP)
# T1 sequence (P11597 18-493): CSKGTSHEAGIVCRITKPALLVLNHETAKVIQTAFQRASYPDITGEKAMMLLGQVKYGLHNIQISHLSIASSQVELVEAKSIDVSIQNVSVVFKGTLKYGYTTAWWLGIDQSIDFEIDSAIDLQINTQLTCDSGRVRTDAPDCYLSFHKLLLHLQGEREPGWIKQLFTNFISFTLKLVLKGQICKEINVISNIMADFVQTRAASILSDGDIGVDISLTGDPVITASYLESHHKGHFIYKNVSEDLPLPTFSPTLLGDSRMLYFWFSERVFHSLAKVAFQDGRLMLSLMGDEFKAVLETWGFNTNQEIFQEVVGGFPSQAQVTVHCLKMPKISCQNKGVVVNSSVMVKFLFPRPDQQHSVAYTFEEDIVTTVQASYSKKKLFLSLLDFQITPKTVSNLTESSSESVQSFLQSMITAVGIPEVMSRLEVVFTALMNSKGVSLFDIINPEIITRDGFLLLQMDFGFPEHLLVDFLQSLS
# HMG CoA reductase = molecular target: T2, HMG CoA reductase (Homo sapiens, UniProt P04035); conditions: rosuvastatin 20 mg; JUPITER secondary analysis; cited from earlier work
# T2 construct: host or cells: patients of the JUPITER study (in vivo)
# T2 sequence (P04035 1-888): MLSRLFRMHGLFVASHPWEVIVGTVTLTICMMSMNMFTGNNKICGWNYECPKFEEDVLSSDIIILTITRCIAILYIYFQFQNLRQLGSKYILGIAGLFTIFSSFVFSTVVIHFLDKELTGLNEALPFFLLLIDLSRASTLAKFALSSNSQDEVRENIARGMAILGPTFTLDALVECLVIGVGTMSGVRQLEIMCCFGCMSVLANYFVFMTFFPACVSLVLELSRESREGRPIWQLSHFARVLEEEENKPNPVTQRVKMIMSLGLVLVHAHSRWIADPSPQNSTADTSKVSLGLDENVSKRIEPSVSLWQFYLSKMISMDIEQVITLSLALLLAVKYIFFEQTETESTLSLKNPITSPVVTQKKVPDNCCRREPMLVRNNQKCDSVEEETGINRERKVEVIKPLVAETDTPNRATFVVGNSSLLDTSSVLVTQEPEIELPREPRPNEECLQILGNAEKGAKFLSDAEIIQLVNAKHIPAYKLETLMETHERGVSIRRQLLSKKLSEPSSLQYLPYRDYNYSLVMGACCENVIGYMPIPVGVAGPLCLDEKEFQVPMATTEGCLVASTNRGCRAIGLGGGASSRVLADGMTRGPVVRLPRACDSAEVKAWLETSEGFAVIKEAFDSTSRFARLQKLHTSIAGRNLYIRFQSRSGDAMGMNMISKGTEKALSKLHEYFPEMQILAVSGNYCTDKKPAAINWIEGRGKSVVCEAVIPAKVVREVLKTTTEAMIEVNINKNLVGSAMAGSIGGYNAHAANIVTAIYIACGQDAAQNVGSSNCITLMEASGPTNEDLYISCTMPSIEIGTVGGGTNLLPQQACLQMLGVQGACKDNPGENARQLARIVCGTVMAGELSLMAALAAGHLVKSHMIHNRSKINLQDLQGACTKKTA
# CETP [2] = molecular target: T1, CETP; conditions: in combination with atorvastatin; cited from earlier work
smiles,measurement,setting,value
CCC(CC)CC1(C(=O)Nc2ccccc2SC(=O)C(C)C)CCCCC1 [dalcetrapib],effects on LDL-C concentrations,CETP [1],minimal effects on LDL-C concentrations
same,increased HDL-C by,CETP [1],30-40%
CC(C)c1nc(N(C)S(C)(=O)=O)nc(-c2ccc(F)cc2)c1/C=C/[C@@H](O)C[C@@H](O)CC(=O)O [rosuvastatin],median LDL-C lowering response,HMG CoA reductase,50%
CCOC(=O)N1c2ccc(C(F)(F)F)cc2[C@@H](N(Cc2cc(C(F)(F)F)cc(C(F)(F)F)c2)C(=O)OC)C[C@H]1CC [torcetrapib],cardiovascular events and death,CETP [2],unexpected increase in cardiovascular events and death
